Test results: EP0525960B1, “Use of rapamycin for the treatment of adult T-cell leukemia/lymphoma” (AMERICAN HOME PRODUCTS CORPORATION, priority 1991, dated 1993)

Legend:
Type in all cases: cell-based
31008 = assay: Inhibition of ATL cell proliferation (tritiated thymidine incorporation); conditions: Homo sapiens, 24 hours, read-out: PERCENT INHIBITION OF ATL CELL PROLIFERATION
Description: (§1) The effect of rapamycin on ATL was established in an in vitro standard pharmacological test procedure using ten human HTLV-1 transformed T-cell lines cultured from ATL patients. These cell lines are presently the best models for ATL in humans. Cyclosporin A (CsA) was also evaluated for the purpose of comparison. The procedure used and results obtained are described below.
(§2) ATL cell lines were established according to known literature procedures. ATL5S, ATL3I, and ATL1K were established according to the method of Hoshino [Proc. Natl. Acad. Sci, 80: 6061(1983)]. The cell lines 31008, 31009, 31016 and AT(EGG) were established from peripheral blood of HTLV-1 infected individuals via co-culture with cord blood lymphocytes. The cell line MALN was isolated from lymphoid tumor tissue of an HTLV-1 infected ATL patient seen at Jackson Memorial/University of Miami Medical Center. [Harrington, W.J., Jr., J. Acq. Imm. Def. Dis., 4: 284 (1991)]. The primary cultures BL and GP were initiated from peripheral blood of ATL patients. The MALN, BL, and GP cell lines were initiated without co-cultivation.
(§3) Cells were adjusted to a concentration of 1x10⁶ cells/mL in RPMI 1640 with 15% fetal bovine serum and were supplemented with 50 U/mL penicillin, 50 µg/mL streptomycin, and 2 mM glutamine. […] Drug concentrations evaluated ranged from 1µM to 100 fM. Cultures were incubated at 37°C, 5% CO₂ for 24 hours followed by a 4 hr. pulse with 0.5 µCi of tritiated thymidine. Thymidine incorporation was measured by liquid scintillation counting, and the results expressed in counts per minute (cpm). The results obtained from the mean of four evaluations at each concentration were compared with control values to determine percent inhibition. The following formula was used to calculate the percent inhibition: Percent Inhibition =(cpm[no drug] - cpm[drug])/(cpm[no drug])x 100 [formula] The percent inhibition obtained with rapamycin is shown in the following table.

31016 = assay: as above; conditions: Homo sapiens, 24 hours, read-out: PERCENT INHIBITION OF ATL CELL PROLIFERATION
Description: as §1, §2, §3

ATEGG = assay: as above; conditions: Homo sapiens, 24 hours, read-out: PERCENT INHIBITION OF ATL CELL PROLIFERATION
Description: as §1, §2, §3

ATL1K = assay: as above; conditions: Homo sapiens, 24 hours, read-out: PERCENT INHIBITION OF ATL CELL PROLIFERATION
Description: as §1, §2, §3

ATL3I = assay: as above; conditions: Homo sapiens, 24 hours, read-out: PERCENT INHIBITION OF ATL CELL PROLIFERATION
Description: as §1, §2, §3

BL = assay: as above; conditions: Homo sapiens, 24 hours, read-out: PERCENT INHIBITION OF ATL CELL PROLIFERATION
Description: as §1, §2, §3

GP = assay: as above; conditions: Homo sapiens, 24 hours, read-out: PERCENT INHIBITION OF ATL CELL PROLIFERATION
Description: as §1, §2, §3

MALN = assay: as above; conditions: Homo sapiens, 24 hours, read-out: PERCENT INHIBITION OF ATL CELL PROLIFERATION
Description: as §1, §2, §3

31009 = assay: as above; conditions: Homo sapiens, 24 hours, read-out: PERCENT INHIBITION OF ATL CELL PROLIFERATION
Excerpt: as §2
(§4) Cells were adjusted to a concentration of 1x10⁶ cells/mL in RPMI 1640 with 15% fetal bovine serum and were supplemented with 50 U/mL penicillin, 50 µg/mL streptomycin, and 2 mM glutamine. […] Drug concentrations evaluated ranged from 1µM to 100 fM. Cultures were incubated at 37°C, 5% CO₂ for 24 hours followed by a 4 hr. pulse with 0.5 µCi of tritiated thymidine. Thymidine incorporation was measured by liquid scintillation counting, and the results expressed in counts per minute (cpm).

ATL5S = assay: as above; conditions: Homo sapiens, 24 hours, read-out: PERCENT INHIBITION OF ATL CELL PROLIFERATION
Excerpt: as §2, §4

[1] = test system: ten human HTLV-1 transformed T-cell lines; assay: Inhibition of ATL cell proliferation, summary over the panel of ten cell lines; conditions: in 4 of the cell lines at a concentration of 1 nM, read-out: reduction in proliferation
Description: as §1
as §2, with “The MALN, BL, and GP cell lines were initiated without co-cultivation.” left out
Cells were adjusted to a concentration of 1x10⁶ cells/mL in RPMI 1640 with 15% fetal bovine serum and were supplemented with 50 U/mL penicillin, 50 µg/mL streptomycin, and 2 mM glutamine. […] Drug concentrations evaluated ranged from 1µM to 100 fM. […] Thymidine incorporation was measured by liquid scintillation counting, and the results expressed in counts per minute (cpm). […]

CO[C@H]1C[C@@H]2CC[C@@H](C)[C@@](O)(O2)C(=O)C(=O)N2CCCC[C@H]2C(=O)O[C@H]([C@H](C)C[C@@H]2CC[C@@H](O)[C@H](OC)C2)CC(=O)[C@H](C)/C=C(\C)[C@@H](O)[C@@H](OC)C(=O)[C@H](C)C[C@H](C)/C=C/C=C/C=C/1C [Rapamycin]
inhibition at 1 pM (31008; Rapamycin Concentration 1 pM): 30%
inhibition at 10 pM (31008; Rapamycin Concentration 10 pM): 31%
inhibition at 0.0001 µM (31008; Rapamycin Concentration 100 pM): 45%
inhibition at 0.001 µM (31008; Rapamycin Concentration 1 nM): 54%
inhibition at 0.01 µM (31008; Rapamycin Concentration 10 nM): 58%
inhibition at 0.1 µM (31008; Rapamycin Concentration 100 nM): 68%
inhibition at 1 µM (31008; Rapamycin Concentration 1 µM): 69%
inhibition at 100 fM (31008; Rapamycin Concentration 100 fM): 29%
inhibition at 1 pM (31016; Rapamycin Concentration 1 pM): 50%
inhibition at 10 pM (31016; Rapamycin Concentration 10 pM): 47%
inhibition at 0.0001 µM (31016; Rapamycin Concentration 100 pM): 49%
inhibition at 0.001 µM (31016; Rapamycin Concentration 1 nM): 48%
inhibition at 0.01 µM (31016; Rapamycin Concentration 10 nM): 49%
inhibition at 0.1 µM (31016; Rapamycin Concentration 100 nM): 56%
inhibition at 1 µM (31016; Rapamycin Concentration 1 µM): 59%
inhibition at 100 fM (31016; Rapamycin Concentration 100 fM): 44%
inhibition at 1 pM (ATEGG; Rapamycin Concentration 1 pM): 48%
inhibition at 10 pM (ATEGG; Rapamycin Concentration 10 pM): 44%
inhibition at 0.0001 µM (ATEGG; Rapamycin Concentration 100 pM): 49%
inhibition at 0.001 µM (ATEGG; Rapamycin Concentration 1 nM): 53%
inhibition at 0.01 µM (ATEGG; Rapamycin Concentration 10 nM): 45%
inhibition at 0.1 µM (ATEGG; Rapamycin Concentration 100 nM): 60%
inhibition at 1 µM (ATEGG; Rapamycin Concentration 1 µM): 58%
inhibition at 100 fM (ATEGG; Rapamycin Concentration 100 fM): 44%
inhibition at 1 pM (ATL1K; Rapamycin Concentration 1 pM): 15%
inhibition at 10 pM (ATL1K; Rapamycin Concentration 10 pM): 12%
inhibition at 0.0001 µM (ATL1K; Rapamycin Concentration 100 pM): 23%
inhibition at 0.001 µM (ATL1K; Rapamycin Concentration 1 nM): 26%
inhibition at 0.01 µM (ATL1K; Rapamycin Concentration 10 nM): 18%
inhibition at 0.1 µM (ATL1K; Rapamycin Concentration 100 nM): 32%
inhibition at 1 µM (ATL1K; Rapamycin Concentration 1 µM): 19%
inhibition at 100 fM (ATL1K; Rapamycin Concentration 100 fM): 15%
inhibition at 1 pM (ATL3I; Rapamycin Concentration 1 pM): 11%
inhibition at 10 pM (ATL3I; Rapamycin Concentration 10 pM): 6%
inhibition at 0.0001 µM (ATL3I; Rapamycin Concentration 100 pM): 11%
inhibition at 0.001 µM (ATL3I; Rapamycin Concentration 1 nM): 18%
inhibition at 0.01 µM (ATL3I; Rapamycin Concentration 10 nM): 15%
inhibition at 0.1 µM (ATL3I; Rapamycin Concentration 100 nM): 17%
inhibition at 1 µM (ATL3I; Rapamycin Concentration 1 µM): 28%
inhibition at 100 fM (ATL3I; Rapamycin Concentration 100 fM): 7%
inhibition at 1 pM (BL; Rapamycin Concentration 1 pM): 56%
inhibition at 10 pM (BL; Rapamycin Concentration 10 pM): 55%
inhibition at 0.0001 µM (BL; Rapamycin Concentration 100 pM): 65%
inhibition at 0.001 µM (BL; Rapamycin Concentration 1 nM): 73%
inhibition at 0.01 µM (BL; Rapamycin Concentration 10 nM): 76%
inhibition at 0.1 µM (BL; Rapamycin Concentration 100 nM): 79%
inhibition at 1 µM (BL; Rapamycin Concentration 1 µM): 80%
inhibition at 100 fM (BL; Rapamycin Concentration 100 fM): 51%
inhibition at 1 pM (GP; Rapamycin Concentration 1 pM): 20%
inhibition at 10 pM (GP; Rapamycin Concentration 10 pM): 14%
inhibition at 0.0001 µM (GP; Rapamycin Concentration 100 pM): 39%
inhibition at 0.001 µM (GP; Rapamycin Concentration 1 nM): 42%
inhibition at 0.01 µM (GP; Rapamycin Concentration 10 nM): 46%
inhibition at 0.1 µM (GP; Rapamycin Concentration 100 nM): 46%
inhibition at 1 µM (GP; Rapamycin Concentration 1 µM): 54%
inhibition at 100 fM (GP; Rapamycin Concentration 100 fM): 23%
inhibition at 1 pM (MALN; Rapamycin Concentration 1 pM): 36%
inhibition at 10 pM (MALN; Rapamycin Concentration 10 pM): 26%
inhibition at 0.0001 µM (MALN; Rapamycin Concentration 100 pM): 37%
inhibition at 0.001 µM (MALN; Rapamycin Concentration 1 nM): 43%
inhibition at 0.01 µM (MALN; Rapamycin Concentration 10 nM): 41%
inhibition at 0.1 µM (MALN; Rapamycin Concentration 100 nM): 54%
inhibition at 1 µM (MALN; Rapamycin Concentration 1 µM): 55%
inhibition at 100 fM (MALN; Rapamycin Concentration 100 fM): 36%
inhibition at 1 pM (31009; Rapamycin Concentration 1 pM): 59%
inhibition at 10 pM (31009; Rapamycin Concentration 10 pM): 47%
inhibition at 0.0001 µM (31009; Rapamycin Concentration 100 pM): 61%
inhibition at 0.001 µM (31009; Rapamycin Concentration 1 nM): 68%
inhibition at 0.01 µM (31009; Rapamycin Concentration 10 nM): 67%
inhibition at 0.1 µM (31009; Rapamycin Concentration 100 nM): 70%
inhibition at 1 µM (31009; Rapamycin Concentration 1 µM): 71%
inhibition at 100 fM (31009; Rapamycin Concentration 100 fM): 60%
inhibition at 1 pM (ATL5S; Rapamycin Concentration 1 pM): 14%
inhibition at 10 pM (ATL5S; Rapamycin Concentration 10 pM): 38%
inhibition at 0.0001 µM (ATL5S; Rapamycin Concentration 100 pM): 47%
inhibition at 0.001 µM (ATL5S; Rapamycin Concentration 1 nM): 48%
inhibition at 0.01 µM (ATL5S; Rapamycin Concentration 10 nM): 49%
inhibition at 0.1 µM (ATL5S; Rapamycin Concentration 100 nM): 58%
inhibition at 1 µM (ATL5S; Rapamycin Concentration 1 µM): 59%
inhibition at 100 fM (ATL5S; Rapamycin Concentration 100 fM): 36%
inhibition at 0.001 µM [1]: 50%
